The values below come from PMC6369212, “Cytochrome P450 3A Enzymes Are Key Contributors for Hepatic Metabolism of Bufotalin, a Natural Constitute in Chinese Medicine Chansu” (Frontiers in Pharmacology, 2019).

Where “and” joins values, the source holds several entries; their conditions need not be identical. Equal entries are not always repeated.

Data set [1] has as its system HLM. As to the kind of experiment: Material balance of BFT and its metabolite in HLM. In kind it is in vitro ADME, human. The method, then:
A single metabolite of BFT was identified following incubation with HLM (0.3 mg protein/ml) in the presence of the NADPH-generating system (Figure 1). […] The metabolite was characterized by UFLC-DAD-ESI-MS, and the formation of monohydroxylbufotalin was NADPH-, time-, and microsome-dependent. […] The [M+H]^+ and [M+CH3CN+H]^+ ion of the metabolite at m/z in HLM were 461.3 and 502.4, respectively.

The subject of data set [2] is BFT 5β-hydroxylation in pooled HLM. As to the kind of experiment: Chemical inhibition of BFT 5β-hydroxylation by selective CYP inhibitors in HLM. In kind it is in vitro ADME, human. The following applies: BFT 10 μM, HLM 0.25 mg protein/ml.
Method: (§1) Human liver microsomes or CYPs were incubated with NADPH-generating system, which included NADP^+ (1 mM), glucose-6-phosphate (10 mM), glucose-6-phosphate dehydrogenase (1 unit/ml), and 4 mM MgCl2 in 100 mM potassium phosphate buffer (pH 7.4) in a total incubation volume of 200 μl. After a 3 min preincubation at 37°C, the reaction was initiated by the addition of NADPH-generating system and further incubated at 37°C for 30 min. The reaction was quenched with 100 μl of ice-cold acetonitrile. The samples were chilled, spun at 20,000 × g for 20 min at 4°C. Aliquots of supernatants were then stored at -20°C until analysis. All incubations throughout the study were done in three experiments conducted in duplicate with S.D. values generally below 10%.
A short description of another data set: in vitro. The following applies: human; for Km: pH 7.4, Km, BFT 5β-hydroxylation, HLM 0.25 mg protein/mL, 30 min, biphasic kinetics.
Another data set has as its system other P450 isoforms. As to the kind of experiment: Reaction phenotyping of BFT hydroxylation with other recombinant P450 isoforms. In kind it is in vitro ADME, human. The following applies: BFT 3 and 100 μM, isoforms other than CYP3A4 and CYP3A5. An excerpt:
BFT and BF were purchased from Shanghai Winherb Medical Technology Company (Shanghai, China). ABT, furafylline, sulfaphenazole, clomethiazole, omeprazole, 8-methoxypsoralen, ticlopidine, CYP3cide, glucose-6-phosphate dehydrogenase, D-glucose-6-phosphate, and NADP^+ were obtained from Sigma (St. Louis, MO, United States). Montelukast, quinidine, ketoconazole was purchased from Jianglai Biotechnology Co., Ltd. (Shanghai, China). The pooled HLMs (from 50 donors, lot no. X008067) were obtained from BioreclamationIVT (Baltimore, MD, United States). A panel of baculovirus expressed human P450s (CYP1A1, 1A2, 2A6, 2A13, 2B6, 2C8, 2C9, 2C19, 2D6, 2E1, 3A4, 3A5, 4F2, and 4F3), co-expressing NADPH-CYP reductase and cytochrome b5 were obtained from BD Gentest Corp (Woburn, MA, United States). All chemicals and solvents were of analytical grade.
[…] cDNA-expressed human P450 isoforms co-expressing NADPH-P450 reductase were used for assay of BFT hydroxylation activity.

Data set [3] deals with HLM.
Method: as §1
(§2) The formation rates of 5-HBFT was within the linear range of the incubation time and protein concentration. […] BFT was incubated with pooled HLM (0.25 mg protein/mL) for 30 min, or with recombinant CYP3A4 (5 nM) and CYP3A5 (10 nM) for 30 min. […] The kinetic constants were calculated with GraphPad Prism software, version 6.0, and the results were graphically represented by Eadie–Hofstee plots.
(§3) (1) v=Vmax 1[S]/Kmax 1+[S]+Vmax 2[S]/Kmax 2+[S]
(§4) where v is the rate of the reaction, [S] is the substrate concentration, Vmax is the maximum velocity estimate, Km is the substrate affinity constant.
(§5) Km values are μM, Vmax values were in nmol/min/mg protein for liver microsomes, or in nmol/min/nmol CYP for CYP3A. […] Each value was the mean ± S.D. of three determinations performed in duplicate.
A further data set concerns the target recombinant human CYP3A4 (Homo sapiens, UniProt P08684). As to the kind of experiment: Kinetic analysis of 5β-hydroxylation in recombinant CYP3A4.
A further data set has as its target recombinant human CYP3A5 (Homo sapiens, UniProt P20815). As to the kind of experiment: Kinetic analysis of 5β-hydroxylation in recombinant CYP3A5.
Data set [4] has as its system CC(=O)O[C@H]1C[C@]2(O)[C@@H]3CC[C@@H]4C[C@@H](O)CC[C@]4(C)[C@H]3CC[C@]2(C)[C@H]1c1ccc(=O)oc1. As to the kind of experiment: cells, lysate or membranes named. The following applies: other: CYP3A5 10 nM, 30 min, substrate inhibition kinetics; pH 7.4; 37.0 °C.
Method: as §1
(§6) BFT was incubated with pooled HLM (0.25 mg protein/mL) for 30 min, or with recombinant CYP3A4 (5 nM) and CYP3A5 (10 nM) for 30 min. […] The kinetic constants were calculated with GraphPad Prism software, version 6.0, and the results were graphically represented by Eadie–Hofstee plots.
(2) v=Vmax/1+(Km/[S])+([S]/Ksi)
(§7) where Ksi is the substrate inhibition constant.
as §5
The mark [5] stands for this setting: HLM 0.25 mg protein/mL, 30 min, biphasic kinetics.
The mark [6] stands for this setting: CYP3A4 5 nM, 30 min, biphasic kinetics.
[7] abbreviates: CYP3A5 10 nM, 30 min, substrate inhibition kinetics.

Sequence of recombinant human CYP3A5 (P20815 whole entry): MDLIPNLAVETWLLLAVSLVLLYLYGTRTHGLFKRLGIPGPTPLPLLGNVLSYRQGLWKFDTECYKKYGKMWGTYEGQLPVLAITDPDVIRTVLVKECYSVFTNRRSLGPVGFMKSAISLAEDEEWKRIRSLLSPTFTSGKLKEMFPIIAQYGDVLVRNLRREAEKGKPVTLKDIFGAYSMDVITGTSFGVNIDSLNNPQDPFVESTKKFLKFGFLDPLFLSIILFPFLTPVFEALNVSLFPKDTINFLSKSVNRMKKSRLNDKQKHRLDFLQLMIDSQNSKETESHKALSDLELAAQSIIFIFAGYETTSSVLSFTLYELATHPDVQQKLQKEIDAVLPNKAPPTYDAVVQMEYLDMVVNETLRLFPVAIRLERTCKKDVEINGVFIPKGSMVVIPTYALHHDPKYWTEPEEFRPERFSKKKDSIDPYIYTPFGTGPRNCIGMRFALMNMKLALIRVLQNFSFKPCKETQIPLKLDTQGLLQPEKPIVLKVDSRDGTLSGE
Sequence of recombinant human CYP3A4 (P08684 2-503 limits assumed): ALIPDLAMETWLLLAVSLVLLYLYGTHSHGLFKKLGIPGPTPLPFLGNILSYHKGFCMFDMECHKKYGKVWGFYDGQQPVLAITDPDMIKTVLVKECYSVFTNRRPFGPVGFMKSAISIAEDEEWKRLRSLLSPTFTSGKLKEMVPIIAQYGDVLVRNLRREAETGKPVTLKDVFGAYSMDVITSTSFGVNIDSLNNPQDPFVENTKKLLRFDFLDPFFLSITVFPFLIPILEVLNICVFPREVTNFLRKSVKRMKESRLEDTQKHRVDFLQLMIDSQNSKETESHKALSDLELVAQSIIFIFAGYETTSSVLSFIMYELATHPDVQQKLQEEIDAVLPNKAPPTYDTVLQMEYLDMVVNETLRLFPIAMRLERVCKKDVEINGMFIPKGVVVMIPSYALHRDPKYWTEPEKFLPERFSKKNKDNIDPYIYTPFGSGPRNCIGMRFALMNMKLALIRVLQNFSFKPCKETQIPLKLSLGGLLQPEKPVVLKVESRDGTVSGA
Method for in vitro: as §1, §2, §3, §4, §5
Method for recombinant human CYP3A4: as §1, §2, §3, §4, §5
Method for recombinant human CYP3A5: as §1, §6
(2) v=Vmax/1+(Km/[S])+([S]/Ksi)
as §7, §5

Regarding `CC(=O)OC1CC2(O)C3CCC4(O)CC(O)CCC4(C)C3CCC2(C)C1c1ccc(=O)oc1` (stereo not drawn) [5-HBFT, 5β-hydroxylbufotalin], the “Compound (%), material balance” value amounted to 0% in the data set with HLM [1] (time 0 min), 11.1392% in the data set with HLM [1] (time 30 min) and 24.5928% with HLM [1] (time 60 min).
In the case of `Nn1nnc2ccccc21` [ABT, 1-aminobenzotriazole], the “inhibition of 5-HBFT formation in HLM” value in data set [2] is “completely”.
For the compound `C[C@]12CC[C@H](O)C[C@H]1CC[C@@H]1[C@@H]2CC[C@]2(C)[C@@H](c3ccc(=O)oc3)CC[C@]12O` [BF, bufalin, reference compound], the Km (usually the concentration of substrate that gives half-maximal velocity) at 30 min in the data set “in vitro” (pH 7.4) turned out to be 8 ± 0.52 µM.
Take `CC(=O)O[C@H]1C[C@]2(O)[C@@H]3CC[C@@H]4C[C@@H](O)CC[C@]4(C)[C@H]3CC[C@]2(C)[C@H]1c1ccc(=O)oc1` [BFT, bufotalin]: the “metabolite formation by other P450 isoforms” value in the data set on other P450 isoforms is listed as “no metabolites were detected”. The results for the “Compound (%), material balance” value in the data set on HLM [1] (time 0 min), in the data set with HLM [1] (time 30 min) and in the data set with HLM [1] (time 60 min) were 99.5%, 88.0247% and 73.5708%, respectively. In addition, the “Vmax, high-affinity site (Vmax1), BFT 5β-hydroxylation” value in the data set on HLM [3] (setting [5]) is 33.31 per min/mg and 33.31 ± 12.64 per min/mg; at recombinant human CYP3A4 (setting [6]), 6.87 per min/nmol P450 and 6.87 ± 3.59 per min/nmol P450. Also, the “Vmax, low-affinity site (Vmax2), BFT 5β-hydroxylation” value with HLM [3] (setting [5]) is 107.30 per min/mg and 107.30 ± 11.77 per min/mg; at recombinant human CYP3A4 (setting [6]), 33.70 per min/nmol P450 and 33.70 ± 3.08 per min/nmol P450. Moreover, the “kinetic behavior of BFT 5β-hydroxylation” value in the data set on HLM [3] (HLM, Eadie–Hofstee plot) is reported as “biphasic kinetics”; on recombinant human CYP3A4 (CYP3A4, Eadie–Hofstee plot) it was “biphasic kinetics”; on recombinant human CYP3A5 (CYP3A5, Eadie–Hofstee plot) it was “substrate inhibition kinetic”. Also, the Michaelis constant (Km) turned out to be 3.71 ± 2.68 µM in “in vitro” (high-affinity site (Km1)) and 134 ± 72.2 µM in “in vitro” (low-affinity site (Km2)). Besides, the “CLint, BFT 5β-hydroxylation” value on recombinant human CYP3A5 (CYP3A5) was found to be 1186.12. The “Ksi (substrate inhibition constant), BFT 5β-hydroxylation” value on recombinant human CYP3A5 (setting [7]) came out at 170.00 ± 12.69 µM. The “Vmax, BFT 5β-hydroxylation” value at recombinant human CYP3A5 (setting [7]) is recorded as 3.45 nmol/min per nanomole P450.
For the compound `Cc1ccc(-c2c(-c3nn(C)c4ncnc(N5CC[C@H](N6CCCCC6)C5)c34)cnn2C)cc1` [CYP3cide], the “inhibition of 5-HBFT formation in HLM” value in data set [2] is reported as around 90%.
As to recombinant human CYP3A5 (Homo sapiens), in data set [4], the Michaelis constant (Km) was determined as 2.91 ± 0.24 µM and the kcat is listed as 3.45 ± 0.09 nmol/min per nanomole P450.
